Measurements from PubChem BioAssay AID2060625 (Molecular Pharmacology Branch, DTP, NCI, 2025).

Tested on: 186277-243-T-J2-PDC spheroids with HUVEC/MSC, viability
Assay: Anticancer human tumor 186277-243-T-J2-PDC patient-derived colon adenocarcinoma cell line growth inhibition [CLK]
Conditions: for IC50: curve of first compound; for viability, T/C: stronger effect = lower value
In short: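 Patient-derived tumor cells grown as complex spheroids with HUVEC endothelial cells and mesenchymal stem cells, treated with drug combinations. Concentrations descend in half-log steps from near clinical Cmax, or from 10 microM if Cmax unknown.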
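Further: compound exposure lasted seven days before readout.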
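Wherever viability, T/C is given: 100% = DMSO vehicle control wells.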

In the case of `NC(=O)C(=Cn1cnc(-c2cc(C(F)(F)F)cc(C(F)(F)F)c2)n1)c1cncnc1` + CNC(=O)c1ccc(Nc2nc(OC3CCCC3)c3c(-c4ccc5nc(C)oc5c4)c[nH]c3n2)c(OC)c1, the IC50 (second compound 0.0316 µM) is reported as 152 nM, the IC50 (second compound 0.1 µM) is reported as 46 nM and the IC50 (second compound 0.316 µM) is reported as < 9.49 nM. The IC50 (second compound 1 µM) was < 9.49 nM, the IC50 (second compound 3.16 µM) was < 9.49 nM and the IC50 (second compound 10 µM) was < 9.49 nM. The viability, T/C (second compound 0.0316 µM, first compound 0.00949 µM) was 88.5%, the viability, T/C (second compound 0.0316 µM, first compound 0.03 µM) was 84.2% and the viability, T/C (second compound 0.0316 µM, first compound 0.0949 µM) was 79.1%. The viability, T/C (second compound 0.0316 µM, first compound 0.3 µM) was 7.94%, the viability, T/C (second compound 0.0316 µM, first compound 0.949 µM) was 3.02% and the viability, T/C (second compound 0.0316 µM, first compound 3 µM) was 5.16%. The viability, T/C (second compound 0.1 µM, first compound 0.00949 µM) was 54.5%, the viability, T/C (second compound 0.1 µM, first compound 0.03 µM) was 55.2% and the viability, T/C (second compound 0.1 µM, first compound 0.0949 µM) was 42.1%. For the same molecule, the viability, T/C (second compound 0.1 µM, first compound 0.3 µM) was 6.58%, the viability, T/C (second compound 0.1 µM, first compound 0.949 µM) was 3.16% and the viability, T/C (second compound 0.1 µM, first compound 3 µM) was 2.39%. For the same molecule, the viability, T/C (second compound 0.316 µM, first compound 0.00949 µM) was 36.4%, the viability, T/C (second compound 0.316 µM, first compound 0.03 µM) was 37.7% and the viability, T/C (second compound 0.316 µM, first compound 0.0949 µM) was 17.6%. The viability, T/C (second compound 0.316 µM, first compound 0.3 µM) was 2.14%, the viability, T/C (second compound 0.316 µM, first compound 0.949 µM) was 2.54% and the viability, T/C (second compound 0.316 µM, first compound 3 µM) was 1.77%. It also gave a viability, T/C (second compound 1 µM, first compound 0.00949 µM) of 25.6%, a viability, T/C (second compound 1 µM, first compound 0.03 µM) of 24.7% and a viability, T/C (second compound 1 µM, first compound 0.0949 µM) of 7.44%. It also gave a viability, T/C (second compound 1 µM, first compound 0.3 µM) of 2.4%, a viability, T/C (second compound 1 µM, first compound 0.949 µM) of 1.17% and a viability, T/C (second compound 1 µM, first compound 3 µM) of 2.9%. It also gave a viability, T/C (second compound 3.16 µM, first compound 0.00949 µM) of 26.8%, a viability, T/C (second compound 3.16 µM, first compound 0.03 µM) of 24.6% and a viability, T/C (second compound 3.16 µM, first compound 0.0949 µM) of 3.89%. For the same molecule, the viability, T/C (second compound 3.16 µM, first compound 0.3 µM) was 0.59%, the viability, T/C (second compound 3.16 µM, first compound 0.949 µM) was 2.87% and the viability, T/C (second compound 3.16 µM, first compound 3 µM) was 3.05%. For the same molecule, the viability, T/C (second compound 10 µM, first compound 0.00949 µM) was 28.3%, the viability, T/C (second compound 10 µM, first compound 0.03 µM) was 24.6% and the viability, T/C (second compound 10 µM, first compound 0.0949 µM) was 4.11%. The viability, T/C (second compound 10 µM, first compound 0.3 µM) was 4.12%, the viability, T/C (second compound 10 µM, first compound 0.949 µM) was 0.92% and the viability, T/C (second compound 10 µM, first compound 3 µM) was 1.85%.

In the case of `CC(CO)NC(=O)c1cc(-c2ccc(Cl)cc2)nn(-c2cnn(C)c2)c1=O` (centres undefined) + CNC(=O)c1ccc(Nc2nc(OC3CCCC3)c3c(-c4ccc5nc(C)oc5c4)c[nH]c3n2)c(OC)c1, the IC50 (second compound 0.0316 µM) is reported as > 10000 nM, the IC50 (second compound 0.1 µM) is reported as > 10000 nM and the IC50 (second compound 0.316 µM) is reported as < 31.6 nM. The IC50 (second compound 1 µM) was < 31.6 nM, the IC50 (second compound 3.16 µM) was < 31.6 nM and the IC50 (second compound 10 µM) was < 31.6 nM. The viability, T/C (second compound 0.0316 µM, first compound 0.0316 µM) was 109%, the viability, T/C (second compound 0.0316 µM, first compound 0.1 µM) was 99.1% and the viability, T/C (second compound 0.0316 µM, first compound 0.316 µM) was 101%. It also gave a viability, T/C (second compound 0.0316 µM, first compound 1 µM) of 84.7%, a viability, T/C (second compound 0.0316 µM, first compound 3.16 µM) of 105% and a viability, T/C (second compound 0.0316 µM, first compound 10 µM) of 120%. For the same molecule, the viability, T/C (second compound 0.1 µM, first compound 0.0316 µM) was 75.8%, the viability, T/C (second compound 0.1 µM, first compound 0.1 µM) was 70.5% and the viability, T/C (second compound 0.1 µM, first compound 0.316 µM) was 72.3%. It also gave a viability, T/C (second compound 0.1 µM, first compound 1 µM) of 71.8%, a viability, T/C (second compound 0.1 µM, first compound 3.16 µM) of 74% and a viability, T/C (second compound 0.1 µM, first compound 10 µM) of 81.5%. It also gave a viability, T/C (second compound 0.316 µM, first compound 0.0316 µM) of 50%, a viability, T/C (second compound 0.316 µM, first compound 0.1 µM) of 45.4% and a viability, T/C (second compound 0.316 µM, first compound 0.316 µM) of 43.1%. It also gave a viability, T/C (second compound 0.316 µM, first compound 1 µM) of 49%, a viability, T/C (second compound 0.316 µM, first compound 3.16 µM) of 49.6% and a viability, T/C (second compound 0.316 µM, first compound 10 µM) of 47.8%. For the same molecule, the viability, T/C (second compound 1 µM, first compound 0.0316 µM) was 28.9%, the viability, T/C (second compound 1 µM, first compound 0.1 µM) was 31.6% and the viability, T/C (second compound 1 µM, first compound 0.316 µM) was 29.6%. The viability, T/C (second compound 1 µM, first compound 1 µM) was 32.4%, the viability, T/C (second compound 1 µM, first compound 3.16 µM) was 35.6% and the viability, T/C (second compound 1 µM, first compound 10 µM) was 36%. For the same molecule, the viability, T/C (second compound 3.16 µM, first compound 0.0316 µM) was 33.3%, the viability, T/C (second compound 3.16 µM, first compound 0.1 µM) was 30.7% and the viability, T/C (second compound 3.16 µM, first compound 0.316 µM) was 29.1%. For the same molecule, the viability, T/C (second compound 3.16 µM, first compound 1 µM) was 31.7%, the viability, T/C (second compound 3.16 µM, first compound 3.16 µM) was 32% and the viability, T/C (second compound 3.16 µM, first compound 10 µM) was 35%. The viability, T/C (second compound 10 µM, first compound 0.0316 µM) was 32.5%, the viability, T/C (second compound 10 µM, first compound 0.1 µM) was 31.4% and the viability, T/C (second compound 10 µM, first compound 0.316 µM) was 32%. For the same molecule, the viability, T/C (second compound 10 µM, first compound 1 µM) was 31.4%, the viability, T/C (second compound 10 µM, first compound 3.16 µM) was 34.3% and the viability, T/C (second compound 10 µM, first compound 10 µM) was 31.5%.
